Data published in patent US10028961B2, “Therapeutically active compounds and their methods of use” (AGIOS PHARMACEUTICALS, INC., priority 2013, dated 2018).
Like-named read-outs stand apart in the source and are kept apart here.

Key:
[1] = target: IDH1 wt/IDH1 R132H heterodimer (Homo sapiens (Human), UniProt O75874, R132H); test: In vitro assay for IDH1m R132H inhibitors, IDH1 wt/IDH1 R132H heterodimer, NADPH depletion (diaphorase/resazurin); format: biochemical
Protocol: The following describes the experimental procedures that can be used to obtain data on columns 2 and 4 of Table 4 and column 2 of Table 5.
In the primary reaction, the reduction of α-KG acid to 2-HG is accompanied by a concomitant oxidation of NADPH to NADP. The amount of NADPH remaining at the end of the reaction time is measured in a secondary diaphorase/resazurin reaction in which the NADPH is consumed in a 1:1 molar ratio with the conversion of resazurin to the highly fluorescent resorufin.
The mixture of compound, enzyme, and cofactor is pre-incubated at room temperature for 1 hr prior to the addition of alpha-ketoglutarate. To perform the secondary reaction, 10 uL of 1× buffer containing 36 μg/ml diaphorase and […] resazurin is added to the primary reaction and incubated for a further 5 minutes at 25° C. […] Compounds or compound dilutions are prepared in 100% DMSO concentration and diluted 1:50 into the final reaction. […] IC50s are determined.
IDH1 or IDH2 wildtype (wt) and mutant heterodimers are expressed and purified by methods known in the art. […] Co-expression of IDH1wt-his and IDH1R132C-flag is carried out in sf9 insect cells. Cells (25 g) are resuspended in 250 ml of 50 mM Tirs, 500 mM NaCl, pH7.4, at 4° C. with stirring. Cells are disrupted with 4 passes through an M-Y110 Micro fluidizer (Microfluidics) set to 500 psi, and then centrifuged at 22,000 rcf for 20 min at 4° C. The supernatant is harvested and loaded at 15 cm/h on a Histrap FF 5*1 ml column (GE) which is equilibrated with 50 mM Tirs, 500 mM NaCl, pH7.4. Host cell contaminants are removed by washing the column with equilibration buffer followed by equilibration buffer containing 20 mM imidazole and 60 mM imidazole to baseline. IDH1wt-his homodimer and IDH1wt-his/IDH1R132C-flag are eluted by equilibration buffer containing 250 mM imidazole. Fractions eluted by 250 mM imidazole are pooled together and loaded at 15 cm/h onto a column pre-packed with 10 ml ANTI-FLAG® M2 Affinity Gel (Sigma), the column is equilibrated with 50 mM Tris, 500 mM NaCl, pH7.4. After washing with equilibration buffer, IDH1wt-his/IDH1R132C-flag heterodimer is eluted by equilibration buffer containing flag peptide (0.2 mg/ml). Aliquots of IDH1wt-his/IDH1R132C-flag are flash frozen in liquid N2 and stored at −80° C. Same conditions are used for the purification of IDH1wt-his/IDH1R132H-flag.

IDH2 R140Q = IDH2 R140Q (Homo sapiens (Human), UniProt P48735, R140Q); test: In vitro assay for IDH2m R140Q inhibitors, cofactor depletion assay; format: biochemical; details: IDH2 R140Q enzyme
Text: The following describes the experimental procedures used to obtain data on column 7 of Table 4.
The reaction is terminated by the addition of a second enzyme, diaphorase, and a corresponding substrate, resazurin. Diaphorase reduces resazurin to the highly fluorescent resorufin with the concomitant oxidation of NADPH to NADP, both halting the IDH2 reaction by depleting the available cofactor pool and facilitating quantitation of the amount of cofactor remaining after a specific time period through quantitative production of an easily detected fluorophore.
The test compound is then incubated for one hour at room temperature with the enzyme; before starting the IDH2 reaction with the addition of 10 μl of substrate mix containing 4 μM NADPH and 1.6 mM α-KG in the buffer described above. After a further 16 hours of incubation at room temperature, the reaction is halted and the remaining NADPH measured through conversion of resazurin to resorufin by the addition of 25 μl Stop Mix (36 μg/ml diaphorase enzyme and 60 μM resazurin; in buffer).

[2] = test system: U87MG pLVX-IDH2 R140Q-neo cells; test: U87MG pLVX-IDH2 R140Q-neo cell based assay, 2-HG by LC-MS
[3] = test system: Neurosphere cells (TS603); test: Cellular assay for IDH1m R132H inhibitors, 2-HG by LC-MS in neurosphere cells (TS603); format: cell-based; details: 2-HG in media at 48 hours
Protocol: Cellular Assay for IDH1m R132H Inhibitors.
The following describes the experimental procedures that can be used to obtain data in column 4 of Table 5.
Neurosphere cells (TS603) are grown at 37 C in 5% CO2 in Stem Cell Technologies NeuroCult™ NS-A media supplemented with 1% Primocin, 1% Normocin, 0.0002% Heparin, 20 ng/mL EGF and 10 ng/mL bFGF. Cells are harvested, pelleted and resuspended in Accumax for cell dissociation and counting. Cells are counted and then resuspended in NeuroCult media with 2× heparin, EGF and bFGF at 4 million cells/10 mL media. 100 μl of cell solution are plated in each well of a 96 well with the exception of columns 1 and 12. Columns 1 and 12 contain 200 μL PBS. Compound dose responses are set up at a 2× concentration in Neurocult media without heparin, EGF and bFGF. The final concentration of DMSO is 0.25%. DMSO only control wells are plated in row H. The plates are then placed in the incubator for 48 hours. At 48 hours, 100 μl of media is removed from each well and analyzed by LC-MS for 2-HG concentrations. The cell plate is placed back in the incubator for another 24 hours. At 72 hours post compound addition, 10 mL/plate of Promega Cell Titer Glo reagent is thawed and mixed. The cell plate is removed from the incubator and allowed to equilibrate to room temperature. Then 100 μl of Promega Cell Titer Glo reagent is added to each well of media. The cell plate is then placed on an orbital shaker for 10 minutes and then allowed to sit at room temperature for 20 minutes. The plate is then read for luminescence with an integration time of 500 ms.

[4] = IDH1 wt/R132H heterodimer, NADPH/NADP, not saturated, read-out: IDH1 wt/R132H NADPH/NADP IC50 not saturated
[5] = IDH1 wt/IDH1 R132H heterodimer, 300 μM NADP (saturated), read-out: IDH1 wt/R132H NADPH/NADP IC50 saturated

IDH1 wt/IDH1 R132H heterodimer, sequence (O75874 whole entry R132H): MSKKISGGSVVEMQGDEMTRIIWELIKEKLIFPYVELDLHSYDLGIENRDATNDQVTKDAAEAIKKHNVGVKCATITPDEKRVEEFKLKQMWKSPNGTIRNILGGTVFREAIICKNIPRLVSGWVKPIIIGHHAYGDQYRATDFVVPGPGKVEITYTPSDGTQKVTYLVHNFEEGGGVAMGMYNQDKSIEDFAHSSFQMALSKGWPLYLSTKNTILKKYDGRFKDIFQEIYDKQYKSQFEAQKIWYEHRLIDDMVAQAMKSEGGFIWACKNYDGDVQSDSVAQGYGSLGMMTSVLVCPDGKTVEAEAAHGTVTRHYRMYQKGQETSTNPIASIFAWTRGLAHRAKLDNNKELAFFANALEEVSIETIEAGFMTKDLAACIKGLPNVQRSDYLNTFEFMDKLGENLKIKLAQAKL
IDH1 wt/IDH1 R132H heterodimer, sequence (O75874 whole entry, stated change not applied): as the sequence (O75874 whole entry R132H) above, with H132R counted along it
IDH2 R140Q, sequence (P48735 40-452 R140Q): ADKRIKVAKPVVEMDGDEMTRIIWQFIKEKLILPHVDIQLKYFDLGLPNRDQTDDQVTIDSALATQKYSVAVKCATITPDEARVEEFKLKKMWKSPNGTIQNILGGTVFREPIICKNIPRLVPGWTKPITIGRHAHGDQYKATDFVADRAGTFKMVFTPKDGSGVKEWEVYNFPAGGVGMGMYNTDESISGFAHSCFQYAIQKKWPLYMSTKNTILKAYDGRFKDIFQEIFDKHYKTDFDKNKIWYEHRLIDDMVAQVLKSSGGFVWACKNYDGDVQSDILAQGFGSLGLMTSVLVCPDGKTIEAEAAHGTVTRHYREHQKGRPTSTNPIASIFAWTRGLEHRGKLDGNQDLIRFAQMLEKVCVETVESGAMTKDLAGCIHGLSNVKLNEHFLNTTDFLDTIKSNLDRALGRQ

Compound	IC50 [1, 4] [nM]	IC50 (IDH2 R140Q) [nM]	IC50 ([2]; Homo sapiens, U-87 MG) [nM]	IC50 [3] [nM]	IC50 [1, 5] [nM]	IC50 [2] [nM]
N#Cc1cc(Nc2nc(NC3CCC(F)(F)CC3)nc(-c3cccc(C(F)(F)F)n3)n2)ccn1 [Compound 204]	< 50	< 50	< 50	< 50		
FC1(F)CC(Nc2nc(NC3CC(F)(F)C3)nc(-c3cccc(OC(F)(F)F)n3)n2)C1 [Compound 277]	100 to 1000	50 to 100	50 to 100			
C[C@H](Nc1nc(Nc2ccnc(C(F)(F)F)c2)nc(-n2ccc(C(F)(F)F)n2)n1)C(F)(F)F [Compound 356]		< 50	< 50	< 50	< 50	
CC(C)(O)CNc1nc(Nc2cc(F)cc(C(F)(F)F)c2)nc(-c2cccc(C(C)(F)F)n2)n1 [Compound 397]		< 50	< 50		100 to 1000	
C[C@@H](Nc1nc(Nc2ccnc(C3(C#N)CC3)c2)nc(-c2cncc(C(F)F)n2)n1)C(F)(F)F [Compound 336]				< 50	< 50	
CC[C@H](Nc1nc(N[C@@H](CC)C(F)(F)F)nc(-n2ccc(C(F)(F)F)n2)n1)C(F)(F)F [Compound 363]		50 to 100	50 to 100	< 50	< 50	
C[C@@H](Nc1nc(Nc2ccnc(C3(C#N)CC3)c2)nc(-c2cccc(C(C)(F)F)n2)n1)C(F)(F)F [Compound 348]		< 50	< 50	< 50	< 50	
FC1(F)CCC(Nc2nc(NC3CCC(F)(F)CC3)nc(-c3cccc(C4CC4)n3)n2)CC1 [Compound 305]	> 1000			100 to 1000		
C[C@@H](Nc1nc(N[C@H](C)C2CC2)nc(-c2cccc3[nH]ccc23)n1)C1CC1 [Compound 396]		50 to 100			> 1000	50 to 100
FC1(F)CCC(Nc2nc(NC3Cc4ccc(Br)cc4C3)nc(-c3cccc(C(F)(F)F)n3)n2)C1 (centres unmarked) [Compound 225]	< 50			< 50		
N#CC1(c2cc(Nc3nc(N[C@H]4CCC(F)(F)C4)nc(-c4nccc(C(F)(F)F)n4)n3)ccn2)CC1 [Compound 376]		< 50	< 50		> 1000	
FC1(F)CCC(Nc2nc(NC3CC(c4ccccc4)C3)nc(-c3cccc(C(F)(F)F)n3)n2)C1 (centres unmarked) [Compound 208]	< 50			< 50		
C[C@@H](Nc1nc(N[C@H](C)C2CC2)nc(-c2cccc(N)n2)n1)C1CC1 [Compound 285]	100 to 1000	> 1000	> 1000			
FC1(F)CC[C@H](Nc2nc(Nc3ccnc(C(F)(F)F)c3)nc(-c3ccnc(C(F)(F)F)n3)n2)C1 [Compound 343]		< 50	< 50		100 to 1000	
CC(C)(O)CNc1nc(Nc2cc(F)cc(C#N)c2)nc(-c2cccc(C(C)(F)F)n2)n1 [Compound 398]		< 50	< 50		100 to 1000	
CC(C)(O)CNc1nc(Nc2ccnc(C3(C#N)CC3)c2)nc(-c2cccc(C(F)(F)F)n2)n1 [Compound 259]	100 to 1000	< 50	< 50			
C[C@@H](Nc1nc(N[C@H](C)C(F)(F)F)nc(-c2cccc(C(F)(F)F)n2)n1)C(F)(F)F [Compound 335]				< 50	< 50	
FC1(F)CCC(Nc2nc(NC3CCN(c4ccccc4)C3)nc(-c3cccc(C(F)(F)F)n3)n2)C1 (centres unmarked) [Compound 219]	< 50			< 50		
N#CC1(c2cc(Nc3nc(NC4CCC(F)(F)CC4)nc(-c4cncc(C(F)F)n4)n3)ccn2)CC1 [Compound 338]				< 50	50 to 100	
FC1(F)CCC(Nc2nc(NC3CCC(F)(F)CC3)nc(-c3cc(C(F)(F)F)ccn3)n2)CC1 [Compound 318]	> 1000			≥ 1000		
CC(Cc1ccccc1)Nc1nc(N[C@H](C)C2CC2)nc(-c2cccc(C(F)(F)F)n2)n1 (some centres unmarked) [Compound 206]	< 50			< 50		
C[C@@H](Nc1nc(N[C@H](C)C2CC2)nc(-c2cncc(Cl)c2)n1)C1CC1 [Compound 278]	100 to 1000	> 1000	> 1000			
CC(C)(O)CNc1nc(Nc2ccnc(C#N)c2)nc(-c2cccc(C(F)(F)F)n2)n1 [Compound 288]	100 to 1000	100 to 1000	100 to 1000			
C[C@H](Nc1nc(Nc2ccnc(C3(C#N)CC3)c2)nc(-c2cncc(C(F)F)n2)n1)C(F)(F)F [Compound 337]				< 50	< 50	
C[C@@H](Nc1nc(NC2CCc3ccccc32)nc(-c2cccc(C(F)(F)F)n2)n1)C1CC1 (some centres unmarked) [Compound 135]	< 50			< 50		
CC(C)(C)CNc1nc(NCC(C)(C)C)nc(-c2cccc(N)n2)n1 [Compound 73, 6-(6-aminopyridin-2-yl)-N^2,N^4-dineopentyl-1,3,5-triazine-2,4-diamine]		< 50	50 to 100			
FC1(F)CCC(Nc2nc(NC3Cc4cc(Br)cc(Br)c4C3)nc(-c3cccc(C(F)(F)F)n3)n2)C1 (centres unmarked) [Compound 254]	50 to 100			50 to 100		
CC(C)CNc1nc(NCC(C)C)nc(-c2cccc(N)n2)n1 [Compound 74, 6-(6-aminopyridin-2-yl)-N^2,N^4-diisobutyl-1,3,5-triazine-2,4-diamine]		< 50	50 to 100			
